# Test results taken from patent EP4671240A1, “SALT CONTAINING AROMATIC RING DERIVATIVE ANTAGONIST, PREPARATION METHOD THEREFOR, AND APPLICATION THEREOF” (Jiangsu Hansoh Pharmaceutical Group Co., Ltd., priority 2023, dated 2024).
# Target: T1, AT1 receptors (Homo sapiens, UniProt P30556)
# T1 construct: host or cells: HEK293
# T1 sequence (P30556 1-359): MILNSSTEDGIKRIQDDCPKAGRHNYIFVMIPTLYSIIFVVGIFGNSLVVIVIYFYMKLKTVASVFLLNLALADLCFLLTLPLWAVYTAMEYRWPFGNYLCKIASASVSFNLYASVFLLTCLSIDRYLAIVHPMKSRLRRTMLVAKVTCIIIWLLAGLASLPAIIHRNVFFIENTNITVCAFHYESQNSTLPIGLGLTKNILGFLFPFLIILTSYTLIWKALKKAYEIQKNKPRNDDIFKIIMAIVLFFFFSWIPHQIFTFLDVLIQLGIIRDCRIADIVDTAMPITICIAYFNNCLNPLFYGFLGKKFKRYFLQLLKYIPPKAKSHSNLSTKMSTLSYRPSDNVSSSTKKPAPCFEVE
# Assay: effect on calcium current in cells stably expressing AT1 receptors (HEK293-AT1, FLIPR, antagonist)
# Type: cell-based
# Details: 11 concentration points 10 uM to 0.17 nM
# Text: Test example 1. Determination of the effect of the compounds of the present invention on calcium current in cells stably expressing AT1 receptors 1. Experimental objective: To test the antagonistic effect of compounds on HEK293-AT1 cell activity 2. Experimental instruments and reagents: 2.1 Instruments: • 384-well assay plate (Corning: 3764); • 384-well Echo compound plate (Labcyte: LP-0200); • 384-well compound plate (PE: 6008590); • Bravo Tip (Agilent: 10734-202); • FLIPR Tip (Molecular Device: 9000-0764); • Plate reader FLIPR Tetra (Molecular Device); • Pipetting workstation Bravo (Agilent); • ECHO 550 (LABCYTE); • Liquid injector Multidrop Combi (ThermoFisher). […] Experimental data processing method: FLIPR Tetra was used to read and collect the fluorescence signal value (RFU). The maximum RFU value was used to calculate the percent activation data based on the readings of the Low control (DMSO control) and High control (100 nM positive compound) experimental groups {% activation rate = (RFUsample - RFUlow control) / (RFUhigh control - RFUlow control)×100}. […]
row,SMILES,IC50 [nM]
1,"[2H]C([2H])(c1ccc(-c2ccccc2S(=O)(=O)Nc2noc(C)c2Cl)c(COCC)c1)N1C(=O)C2(CCCC2)N=C1CCCC [Example 2, 4'-((2-Butyl-4-oxo-1,3-diazaspiro[4.4]non-1-en-3-yl)methyl-d2)-N-(4-chloro-5-methylisoxazol-3-yl)-2'-(ethoxymethyl)-[1,1'-biphenyl]-2-sulfonamide]",6.2
2,"CCCCC1=NC2(CCCC2)C(=O)N1Cc1ccc(-c2ccccc2S(=O)(=O)Nc2noc(C)c2Cl)c(COCC)c1 [Example 8, 2-[4-[(2-Butyl-4-oxo-1,3-diazaspiro[4.4]non-1-en-3-yl)methyl]-2-(ethoxymethyl)phenyl]-N-(4-chloro-5-methyl-isoxazol-3-yl)benzenesulfonamide]",3.2
